Measured values taken from patent US20070066608A1, “Novel indole derivatives with an improved antipsychotic activity” (priority 2003, published 2007).

Experiments:
[1] = target: T1, Human Dopamine D4 receptor (Homo sapiens, UniProt P21917); experiment: Radioligand binding experiment for dopamine D4 receptor (hD4), [125I]Spiperone; conditions: membranes of D4 receptor-transfected Sf9 cells, read-out: pIC50 D4 (converted)
T1 construct: expressed in transfected cells; host or cells: Sf9 cells
T1 sequence (P21917 1-419): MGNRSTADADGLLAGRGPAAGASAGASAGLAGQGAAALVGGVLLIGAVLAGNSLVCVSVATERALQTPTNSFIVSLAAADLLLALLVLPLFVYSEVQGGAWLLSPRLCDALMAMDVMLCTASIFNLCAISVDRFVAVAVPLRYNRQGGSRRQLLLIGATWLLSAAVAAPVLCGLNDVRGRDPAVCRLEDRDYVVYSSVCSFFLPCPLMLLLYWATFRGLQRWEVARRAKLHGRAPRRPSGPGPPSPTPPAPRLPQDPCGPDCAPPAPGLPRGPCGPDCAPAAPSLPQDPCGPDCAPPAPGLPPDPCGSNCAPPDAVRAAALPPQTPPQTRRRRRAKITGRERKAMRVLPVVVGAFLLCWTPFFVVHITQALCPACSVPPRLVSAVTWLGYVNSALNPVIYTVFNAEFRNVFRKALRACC
Method: The interaction of the compounds of Formula (I) with dopamine-receptors, h5HT-transporter and h5HT1A receptor was assessed in in vitro radioligand binding experiments. In general, a low concentration of a radioligand with a high binding affinity for a particular receptor or transporter is incubated with a sample of a tissue preparation enriched in a particular receptor or transporter or with a preparation of cells expressing cloned human receptors in a buffered medium. During the incubation, the radioligand binds to the receptor or transporter. When equilibrium of binding is reached, the receptor bound radioactivity is separated from the non-bound radioactivity, and the receptor- or transporter-bound activity is counted The interaction of the test compounds with the receptor is assessed in competition binding experiments. Various concentrations of the test compound are added to the incubation mixture containing the receptor- or transporter preparation and the radioligand. […]
Human Dopamine D4 receptor-transfected Sf9 cells were collected by scraping into ice-cold Tris-HCl buffer (50 mM, pH 7.4). […] Filters were allowed to dry before adding scintillation fluid and counting in a Topcount scintillation counter. % Specific bound and competition binding curves were calculated using S-Plus software (Insightful).

human 5HT transporter = target: T2, human 5HT transporter (Homo sapiens, UniProt P31645); experiment: Binding experiment for 5-HT transporter, [3H]Paroxetine; conditions: 5HT transporter-transfected HEK cells, [3H]Paroxetine binding; read-out: pIC50 5HT reuptake inhibition (converted)
T2 construct: host or cells: HEK cells
T2 sequence (P31645 whole entry): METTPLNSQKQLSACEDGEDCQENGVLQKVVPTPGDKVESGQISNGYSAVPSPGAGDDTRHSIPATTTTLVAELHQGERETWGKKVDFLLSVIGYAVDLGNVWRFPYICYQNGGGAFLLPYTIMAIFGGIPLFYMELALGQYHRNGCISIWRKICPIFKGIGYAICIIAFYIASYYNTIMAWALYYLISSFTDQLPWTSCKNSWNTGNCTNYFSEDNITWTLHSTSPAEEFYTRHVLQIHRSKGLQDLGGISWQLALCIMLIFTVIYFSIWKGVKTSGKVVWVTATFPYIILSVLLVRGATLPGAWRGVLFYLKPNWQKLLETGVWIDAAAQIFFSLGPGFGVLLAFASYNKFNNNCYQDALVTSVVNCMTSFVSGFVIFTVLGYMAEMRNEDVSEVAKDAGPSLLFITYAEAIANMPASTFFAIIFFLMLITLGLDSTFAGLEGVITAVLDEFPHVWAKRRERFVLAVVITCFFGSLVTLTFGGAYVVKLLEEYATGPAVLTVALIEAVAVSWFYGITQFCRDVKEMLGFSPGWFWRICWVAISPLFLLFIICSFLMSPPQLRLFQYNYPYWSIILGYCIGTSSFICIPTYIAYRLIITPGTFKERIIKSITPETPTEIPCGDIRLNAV
Method: (§1) The interaction of the compounds of Formula (I) with dopamine-receptors, h5HT-transporter and h5HT1A receptor was assessed in in vitro radioligand binding experiments. In general, a low concentration of a radioligand with a high binding affinity for a particular receptor or transporter is incubated with a sample of a tissue preparation enriched in a particular receptor or transporter or with a preparation of cells expressing cloned human receptors in a buffered medium. During the incubation, the radioligand binds to the receptor or transporter. When equilibrium of binding is reached, the receptor bound radioactivity is separated from the non-bound radioactivity, and the receptor- or transporter-bound activity is counted The interaction of the test compounds with the receptor is assessed in competition binding experiments. Various concentrations of the test compound are added to the incubation mixture containing the receptor- or transporter preparation and the radioligand. The test compound in proportion to its binding affinity and its concentration inhibits binding of the radioligand.
Frozen human 5HT transporter-transfected HEK cells (Perkin Elmer, Brussels) were thawed and briefly homogenised using an Ultra-Turrax T25 homogeniser prior to dilution to an appropriate protein concentration optimised for specific and non-specific binding. [^3H]Paroxetine (NEN, specific activity 20 Ci/mmol) was diluted in Tris-HCl assay buffer containing NaCl and KCl (50 mM 120 mM and 5 mM, respectively; pH 7.4) at a concentration of 5 nmol/L. Prepared radioligand (25 μl) was then incubated (60 min, 25° C.) with membrane preparations (200 μl) and with 25 μl of either 10% DMSO control, Imipramine (10^−6 mol/L final concentration), or compound of interest Membrane-bound activity was detected by filtration through a Packard Filtermate harvester onto Unifilterplates pre-soaked in 0.1% PEI, washing with ice-cold assay buffer (3×4 ml). Filters were dried prior to addition of scintillation fluid and then counting in a Topcount scintillation counter. % Specific bound and competition binding curves were calculated using S-Plus software (Insightful).

Human 5HT1A receptor = target: T3, Human 5HT1A receptor (Homo sapiens, UniProt P08908); experiment: Binding experiment for 5-HT1A receptor, [3H]8OHDPAT; conditions: membranes of 5HT1A receptor-transfected L929 cells, read-out: pIC50 5HT1A (converted)
T3 construct: expressed in transfected cells; host or cells: L929 cells (stably transfected)
T3 sequence (P08908 1-422): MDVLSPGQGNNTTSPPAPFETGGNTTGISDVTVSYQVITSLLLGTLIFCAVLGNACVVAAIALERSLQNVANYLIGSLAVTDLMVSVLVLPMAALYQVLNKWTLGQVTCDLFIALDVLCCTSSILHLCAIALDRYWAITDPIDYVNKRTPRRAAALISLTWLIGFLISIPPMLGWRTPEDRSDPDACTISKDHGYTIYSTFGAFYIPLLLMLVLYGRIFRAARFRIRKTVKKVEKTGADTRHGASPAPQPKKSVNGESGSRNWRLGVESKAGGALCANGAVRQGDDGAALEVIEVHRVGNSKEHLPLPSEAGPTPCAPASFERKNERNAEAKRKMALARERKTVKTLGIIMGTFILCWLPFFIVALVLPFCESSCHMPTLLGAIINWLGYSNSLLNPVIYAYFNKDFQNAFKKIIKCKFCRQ
Method: as §1
Human 5HT1A receptor-transfected L929 cells were collected by scraping into ice-cold Tris-HCl buffer (50 mM, pH 7.4). The suspension was centrifuged (23 500×g, 10 min, 4° C.) and pellets stored at −70° C. until required. They were then thawed and briefly homogenised using an Ultra-Turrax T25 homogeniser prior to dilution to an appropriate protein concentration optimised for specific and non-specific binding. [^3H]8OHDPAT (NEN, specific activity 127 Ci/mmol) was diluted in Tris-HCl assay buffer containing CaCl2 (50 mM and 4 mM, respectively; pH 7.7) at a concentration of 5 nmol/L. Prepared radioligand (50 μl) was then incubated (30 min, 37° C.) with membrane preparations from L929 cells stably-transfected with the h5HT1A gene construct (400 μl) and with 50 μl of either the 10% DMSO control, spiroxatrine (10^−6 mol/L final concentration), or compound of interest. Membrane-bound activity was detected by filtration through a Packard Filtermate harvester onto Unifaltemplates, washing with ice-cold Tris-HCI buffer (3×4 ml), followed by drying. Scintillation fluid was added and membranes were counted in a Topcount scintillation counter. % Specific bound and competition binding curves were calculated using S-Plus software (Insightful).

[2] = target: T4, Human Dopamine D2L receptor (Homo sapiens, UniProt P14416); experiment: Radioligand binding experiment for dopamine D2 receptor (hD2), [3H]Spiperone; conditions: membranes of D2L receptor-transfected CHO cells, read-out: pIC50 D2 (converted)
T4 construct: expressed in transfected cells; host or cells: CHO cells
T4 sequence (P14416 whole entry): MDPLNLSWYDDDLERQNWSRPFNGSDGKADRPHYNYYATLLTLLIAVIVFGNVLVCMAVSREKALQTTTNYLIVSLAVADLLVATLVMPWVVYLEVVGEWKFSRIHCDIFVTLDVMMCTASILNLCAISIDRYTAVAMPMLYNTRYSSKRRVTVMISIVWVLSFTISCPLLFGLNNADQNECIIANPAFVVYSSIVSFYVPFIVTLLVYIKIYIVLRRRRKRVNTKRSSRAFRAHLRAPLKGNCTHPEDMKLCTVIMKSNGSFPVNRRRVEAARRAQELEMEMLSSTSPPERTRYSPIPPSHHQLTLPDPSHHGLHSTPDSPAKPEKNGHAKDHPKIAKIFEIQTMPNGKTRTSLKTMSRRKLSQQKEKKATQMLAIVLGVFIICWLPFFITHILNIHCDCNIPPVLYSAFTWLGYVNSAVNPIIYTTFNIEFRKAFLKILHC
Method: as §1
Human Dopamine D2L receptor-transfected CHO cells were collected by scraping into ice-cold Tris-HCl buffer ([…], pH 7.4). The suspension was centrifuged (23 500×g, 10 min, 4° C.) and pellets stored at −70° C. until require. They were then thawed and briefly homogenised using an Ultra-Turrax T25 homogeniser prior to dilution to an appropriate protein concentration optimised for specific and non-specific binding. [^3H]Spiperone (NEN, specific activity˜70 Ci/mmol) was diluted in Tris-HCl assay buffer containing NaCl, CaCl2, MgCl2, KCI (50, 120, 2, 1, and 5 mM respectively, adjusted to pH 7.7 with HCl) at a concentration of 2 nmol/L. Prepared radioligand (50 μl) was then incubated (30 min, 37° C.) with membrane preparations pre-diluted to an appropriate protein concentration (400 μl), and with 50 μl of either the 10% DMSO control, Butaclamol (10^−6 mol/L final concentration), or compound of interest. Membrane-bound activity was detected by filtration through a Packard Filtermate harvester onto Unifilterplates, washing with ice-old Tris-HCl buffer (50 mM; pH8.0; 3×4 ml). Filters were allowed to dry before adding scintillation fluid and counting in a Topcount scintillation counter. % Specific bound and competition binding curves were calculated using S-Plus software (Insightful).

SMILES: Fc1ccc2[nH]cc(C3=CCN(CC4COc5ccncc5O4)CC3)c2c1 (stereo not shown) [Compound 4]
- IC50 [1]: 50.1 nM
- IC50 (human 5HT transporter): 50.1 nM
- IC50 (Human 5HT1A receptor): 126 nM
- IC50 [2]: 158 nM
